Test results reported in patent publication US20230172913A1, “COMPOUNDS FOR USE IN THE REACTIVATION OF HIV IN LATENT HIV-INFECTED CELLS” (CENTRE NATIONAL DE LA RECHERCHE SCIENTIFIQUE, priority 2020, published 2023).
Where “and” joins values, the source holds several entries; their conditions need not be identical. Identical values can stand only once.

Legend:
[1] = system: latent cell line ACH-2; assay: Specificity: HIV-1 production in ACH-2 latent cells with mutated TAR (p24 ELISA); format: cell-based; details: compound (2), SAHA 5 μM, BST-1 10 nM
Protocol: Means+/−SEM. ****, p<0.0001 compared to the solvent control (One-way ANOVA).
Once induced, these cells produce infectious virions. For these tests, the viral antigen p24 in the cell supernatant was assayed with the Innotest p24 ELISA kit.

[2] = biological target: T1, Tat-TAR transcription complex (Human immunodeficiency virus type 1 group M subtype B, UniProt P69697); assay: Retardation gel, affinity for Tat-TAR complex; format: binding, HIV-1
T1 construct: made in house; host or cells: E. coli
T1 sequence (P69697 whole entry, one chain of several): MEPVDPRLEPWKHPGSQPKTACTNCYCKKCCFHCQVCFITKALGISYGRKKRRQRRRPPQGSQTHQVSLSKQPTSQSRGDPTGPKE
Protocol: FIG. 1A Delay gel showing the migration of TAR RNA which is free or complexed with the Tat protein (Tat/TAR) in the presence of different concentrations (0 to 120 nM) of the compound (2) (C-2). Tat (400 nM) was incubated with 200 nM of TAR-FAM (WT or Abulge) for 1.5 h in the absence or presence of the compound (2), before separation on a 0.5×TBE 8% acrylamide gel, and acquisition of the fluorescence image. The proteins from the gel were then transferred to a nitrocellulose membrane for Tat visualization by Western blot.
FIG. 1B Quantification of the affinity of the compound (2) (C-2) for the Tat-TAR transcription complex. The Tat-TAR fluorescence band of duplicate gels was quantified and the results are shown in the graph (AU, arbitrary units). n=2. Means+/−SEM. *, p<0.05; ***, p<0.001 compared to the control without the compound (2) (One-way ANOVA).
The affinity of the compound (2) for the Tat-TAR complex was studied by retardation gel. […] The fluorescence of the gel is first visualized with a Chemidoc (Biorad) to detect fluorescein (that is to say TAR). […]

[3] = biological target: T2, Tat protein (86 residues, isolate BH10) (Human immunodeficiency virus type 1 group M subtype B, UniProt P69697); assay: Fluorescence polarization binding of compound to recombinant Tat protein; parameters: species or system HIV-1
T2 construct: The recombinant Tat protein (86 residues, isolate BH10); made in house; host or cells: E. coli
T2 sequence (P69697 whole entry): as the sequence (P69697 whole entry, one chain of several) above
Protocol: (§1) The recombinant Tat protein (86 residues, isolate BH10) was produced in E. coli and purified on heparin-Sepharose then by HPLC as described (Mol Biol Cell 15 (2004), 2347). The compound (2) (MolPort) being fluorescent (λex 320 nm; λem 410 nm), the fluorescence polarization technique (Methods Appl. Fluoresc. (2016) 4(2)) and a PTI fluorimeter were used for the study of the binding of said compound (17 nM) to the Tat protein (1-60 μM) in citrate buffer (50 mM citrate; 150 mM NaCl; pH 7.2). A Kd of the order of 5 μM was measured. An identical value (˜4 μM) was obtained by surface plasmon resonance (SPR; Biacore) by passing the compound (2) in citrate buffer over immobilized Tat on a CMS chip.

[4] = system: Tat protein; assay: Transactivation test on primary T-CD4 cells; format: cell-based, HIV-1; details: primary T-CD4 cells transfected with Tat, 24 h
Protocol: FIG. 6 Transactivation test on primary T-CD4 cells. Primary T-CD4 cells were isolated from the blood of healthy donors, then they were transfected with plasmids containing Tat, LTR-firefly and TK-renilla. 18 h after transfection different concentrations of the compound (2) (C-2) were added, and the lysed cells for the luciferase tests 24 h later. n=3. Means+/−SEM. *, p<0.05 and ***, p<0.001 compared to the control without C-2 (One-way ANOVA).
To verify this point, a transactivation test was carried out with primary T-CD4 cells. […] The need to use doses 100 times higher on cancerous cells (that is to say 5-10 μM) is due to the cancerization process of these cells.

[5] = system: Tat protein; assay: Transactivation by Tat in HeLa cells (LTR-firefly/TK-renilla luciferase); format: cell-based, HIV-1; details: for transactivation by extracellular Tat relative to control / transactivation by intracellular Tat relative to negative control: 5 μM compound, HeLa, 24 h; for transactivation by extracellular Tat relative to control: 200 nM Tat extra; for transactivation by intracellular Tat relative to negative control: Tat transfected (Tat intra)
Protocol: FIG. 2 Evaluation of the transactivating activity of the Tat protein of HeLa cells in the presence of 5 μM of the compound (2) (C-2) or of the compound (3) (C-3). HeLa cells were transfected with plasmids containing LTR-firefly and TK-renilla. In the Tat intra condition, Tat is co-transfected. 18 h after transfection the compounds (2) or (3) were added (5 μM), as well as 200 nM Tat for the Tat extra condition. The cells are lysed for the luciferase tests 24 hours later. The firefly/renilla ratio obtained under control conditions was set at 100. n=2. Means+/−SEM.**, p<0.01, ***, p<0.001 and ****, p<0.0001 compared to the drug-free control (One-way ANOVA).
For this test, the effect of the molecules on transactivation by the extracellular or intracellular Tat protein was monitored by the activity of two luciferases. On the one hand the Firefly luciferase, which is under the control of a viral promoter LTR dependent on the Tat protein, and on the other hand the Renilla luciferase (internal control), under the control of a Thymidine kinase cellular promoter independent of the Tat protein. Transactivation is expressed by the Firefly/Renilla ratio. All plasmids and the procedure have been described (Mol Biol Cell 15 (2004), 2347).
This series of experiments was carried out in the HeLa line. Cells were transfected with PEImax (Nature Comms 9 (2018) 2251). The drugs and Tat (if Tat extra) were added 18 h after transfection as indicated, and left for 24 h before lysing the cells. The luciferases are then assayed using Promega's Dual-Glo kit and a Tecan SPARK 10M plate reader. Extracellular Tat has the property of being able to enter into the cells.

[6] = biological target: T2, Tat protein (86 residues, isolate BH10); assay: Surface plasmon resonance (Biacore) on immobilized Tat; format: binding, HIV-1
Protocol: as §1

[7] = system: latent T-CD4+ lymphocyte cells from HIV-1 patients; assay: Ex vivo LRA activity on quiescent T-CD4+ cells of HIV-1 patients (p24); format: cell-based, human; details: for LRA efficacy compared with BST-1: 50-100 nM, 18-20 h, p24 in supernatant
Protocol: FIG. 5 Ex vivo LRA activity on quiescent T-CD4^+ lymphocyte cells of HIV-1 patients. T-CD4 cells were isolated by negative selection before elimination of activated cells (CD25^+, CD69^+, HLA-DR^+) to obtain quiescent cells which were treated with drugs for 18-20 h to avoid reinfections. The LRA activity of the compounds (2) (C-2) and (3) (C-3) was determined by monitoring the viral protein p24 in the supernatant using a commercial ELISA test improved by the use of a luminescent substrate. The detection limit of p24 was 0.2 pg/ml. The response to BST-1 (10 nM) was set at 100% to allow comparison of LRA efficacy between patients (1 point=1 patient).
The ex vivo LRA activity of the compounds according to the invention was tested on latent T-CD4^+ lymphocyte cells from HIV-1 patients. All 8 patients had been under ART treatment for at least 6 months and their viral load was undetectable. Blood samples (20 ml) were taken (agreement with Montpellier University Hospital, Resp: Dr Edouard Tuaillon). After purification of white blood cells on Ficoll-Hypaque, negative selection of T-CD4^+ cells, elimination of activated T-CD4 cells (CD25^+, CD69^+, HLA-DR^+) (Milenyi kits), quiescent cells were treated with the compounds for 18-20 h to avoid reinfections. An assay p24 was then performed using a luminescent reagent (Luminata forte, Millipore) at the end of the Innotest. The sensitivity of the test thus modified is ˜0.2 pg p24/ml. The response to BST-1 varied between patients from 0.2 to 80 pg/ml.

[8] = system: latent OM10.1 cells (promyeloblasts); assay: LRA activity on OM10.1 latent cells (p24 ELISA); format: cell-based; details: 5 μM, p24 in supernatant
Protocol: FIG. 3B LRA activity of the compound (2) (C-2) and SAHA at 5 μM on latent OM10.1 cells (promyeloblasts). These latent cells, after induction, produce infectious viruses which are assayed in the supernatant by ELISA p24. n=2. Means+/−SEM.*, p<0.05 and ***, p<0.001 compared to the control medium alone (One-way ANOVA).
The results for the compound (2) were confirmed using another latent cell line, OM10.1 (promyeloblasts; source NARP; PLoS Pathog. 11 (2015) 1) which produces infectious HIV after induction. It was assayed by the viral antigen p24 (HIV-1 capsid protein) in the supernatant using an ELISA kit (Innotest).

[9] = system: J-Lat 9.2 latent cells; assay: LRA activity on J-Lat 9.2 latent cells (GFP, FACS); format: cell-based; details: 5 μM, 24 h, GFP fluorescence by FACS
Protocol: FIG. 3A LRA activity of the compounds (1), (2) (3) (C-1, C-2, C-3) and SAHA (histone deacetylase inhibitor) at 5 μM on J-Lat 9.2 latent cells (derived from Jurkats). J-Lat 9.2 have a complete (single) HIV genome with a non-functional Env gene, and a GFP instead of Nef (Symons, J., and al., Retrovirology, 2017. 14(1): p. 2; Jordan, A., and al., The EMBO journal, 2003. 22(8): p. 1868-77). The activation of these viruses can be followed by the production of GFP and therefore by the detection of green fluorescence in the cells, followed by FACS. n=3. Means+/−SEM.**, p<0.01, compared to the drug-free control (One-way ANOVA).
To test the LRA effect of the molecules, JLat9.2 cells were first used. This latent cell line (source: NIH AIDS Reagents Program, NARP) derived from Jurkat cells contains an HIV genome with an inactivated Env gene and a GFP instead of Nef (Retrovirology, 14 (2017) 2). The lifting of latency is accompanied by the emission of fluorescence from GFP. The cells were treated with molecules at 5 μM for 24 h before analysis of the cells with a FACScalibur to determine the % of cells emitting fluorescence. It can be seen in FIG. 3A that the compound (2) at 5 μM has a significant LRA activity, of the order of 20-30% of that of SAHA.

SMILES | induction of HIV-1 production (p24) [1] | concentration stabilizing the Tat-TAR transcription complex [2] | Kd ([2]; retardation gel, 400 nM Tat, 200 nM TAR, 1.5 h at 25° C.) | Kd [3] | concentration most effective in activating transactivation by Tat [4] | transactivation by extracellular Tat relative to control [5] | transactivation by intracellular Tat relative to negative control [5] | effective concentrations on laboratory cell lines ([5]; all the tests on laboratory cell lines (HeLa and That)) | Kd [6] | LRA efficacy compared with BST-1 [7] | concentration sufficient for the LRA effect ex vivo ([7]; latent primary cells) | LRA activity relative to that of SAHA [8] | LRA activity (in words) [9]
COc1cc(C(=O)Nc2cc(-c3nc4ccccc4[nH]3)ccc2C)ccc1OCc1ccc(Cl)cc1 [Compound (2), N-[5-(1H-1,3-benzodiazol-2-yl)-2-methylphenyl]-4-[(4-chlorophenyl)methoxy]-3-methoxybenzamide] | incapable of inducing the production of HIV-1 | 50 to 100 nM and 80 nM | ~0.08 µM | ~5 µM | 30 nM | 60 times | 3.9 times | ~5 µM | ~4 µM | at least as effective as BST-1 | 50 to 100 nM and 50 nM | ~40% | 
O=C(Nc1ccc(-c2nc3ccccc3[nH]2)cc1)c1cccc(OCc2ccccc2)c1 [(3), N-[4-(1H-1,3-benzodiazol-2-yl)phenyl]-3-(benzyloxy)benzamide] |  |  |  |  |  | 108 times | 9 times |  |  | at least as effective as BST-1 |  |  | close to that of SAHA
COc1ccc(-c2nn3ccnc3s2)cc1NC(=O)c1ccc(OCc2ccccc2)cc1 [(1), 4-(benzyloxy)-N-(5-{imidazo[2,1-b][1,3,4]thiadiazol-2-yl}-2-methoxyphenyl)benzamide] |  |  |  |  |  |  |  |  |  |  |  |  | significant activity
